From US5945440A, “Indolocarbazole imides and the use thereof” (priority 1992, dated 1999)

What was measured:
[1] = target: T1, MLC kinase (myosin light-chain kinase) (Gallus gallus, UniProt P11799); experiment: inhibition of MLC kinase, in vitro enzyme test (32P phosphate incorporation); type: biochemical, chicken (stomach); conditions: for IC50: 1 nM MLC kinase, 250 μM ATP, pH 7.2, 20 minutes at 30° C., read-out: inhibition of the protein kinases, MLC-kinase IC50; for ratio of IC50 C-kinase/IC50 MLC-kinase: selectivity factor calculated from the IC50 values
T1 construct: MLC kinase was purified from chicken stomach; from tissue; host or cells: chicken stomach (gizzard smooth muscle)

protein kinase C = experiment: inhibition of protein kinase C, enzyme test; type: biochemical; conditions: read-out: inhibition of the protein kinases, C-kinase IC50
Experimental: In order to ascertain whether it is a question of a selective inhibition of MLC kinase, the compounds were also investigated in other enzyme tests for protein kinase, including tests for protein kinase C. The results from the PKC test are also given in the following Table I. Furthermore, the Table contains selectivity factors which were calculated by the determination of the ratios of the IC50 values.

T1 sequence (P11799 935-1906): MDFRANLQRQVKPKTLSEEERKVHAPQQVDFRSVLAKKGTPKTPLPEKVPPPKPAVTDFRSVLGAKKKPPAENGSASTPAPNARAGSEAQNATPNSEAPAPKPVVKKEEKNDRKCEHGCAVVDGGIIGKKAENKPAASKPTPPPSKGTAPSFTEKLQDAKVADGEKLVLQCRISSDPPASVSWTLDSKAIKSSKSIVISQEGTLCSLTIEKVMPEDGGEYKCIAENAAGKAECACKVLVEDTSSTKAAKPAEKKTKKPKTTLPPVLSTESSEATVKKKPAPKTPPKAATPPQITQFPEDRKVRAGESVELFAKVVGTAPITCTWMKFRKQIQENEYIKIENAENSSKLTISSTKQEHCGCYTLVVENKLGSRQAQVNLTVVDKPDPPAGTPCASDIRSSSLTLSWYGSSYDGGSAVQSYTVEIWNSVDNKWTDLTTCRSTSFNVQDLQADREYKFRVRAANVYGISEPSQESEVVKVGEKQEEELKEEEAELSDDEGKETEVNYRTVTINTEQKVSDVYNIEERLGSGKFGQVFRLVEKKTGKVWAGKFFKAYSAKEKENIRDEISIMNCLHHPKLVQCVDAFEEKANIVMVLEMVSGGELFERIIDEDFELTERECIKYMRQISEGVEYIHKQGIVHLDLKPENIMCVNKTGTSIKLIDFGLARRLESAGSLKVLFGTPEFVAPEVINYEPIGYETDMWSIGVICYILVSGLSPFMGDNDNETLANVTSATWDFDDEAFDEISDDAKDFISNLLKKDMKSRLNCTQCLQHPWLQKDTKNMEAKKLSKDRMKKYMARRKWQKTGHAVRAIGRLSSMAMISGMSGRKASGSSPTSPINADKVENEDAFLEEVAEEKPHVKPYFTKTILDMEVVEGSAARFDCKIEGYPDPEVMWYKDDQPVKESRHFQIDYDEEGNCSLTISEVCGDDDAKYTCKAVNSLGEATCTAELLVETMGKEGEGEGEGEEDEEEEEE

Row | IC50 [1] | ratio of IC50 C-kinase/IC50 MLC-kinase [1] | IC50 (protein kinase C) | Compound
1 | 170 nM | 2.9 | 500 nM | CCN(CC)CC(O)Cn1c2ccccc2c2c3c(c4c5ccccc5[nH]c4c21)C(=O)NC3=O (racemic) [Example 6, (±)-12-(3-Diethylamino-2-hydroxy-1-propyl)-6,7,12,13-tetrahydro-5,7-dioxo-5H-indolo[2,3-a]pyrrolo[3,4-c]-carbazole]
2 | 370 nM | 0.3 | 120 nM | CCN(CC)CC(O)Cn1c2ccccc2c2c3c(c4c5ccccc5n(C)c4c21)C(=O)NC3=O (racemic) [Example 10a, (±)-12-(3-diethylamino-2-hydroxy-1-propyl)-6,7,12,13-tetrahydro-13-methyl-5,7-dioxo-5H-indolo-[2,3-a]pyrrolo[3,4-c]carbazole]
3 | 120 nM | 0.033 | 4 nM | COc1ccc2c(c1)c1c3c(c4c5ccccc5n(C)c4c1n2CC(O)CN(C)C)C(=O)NC3=O (racemic) [Example 10b, (±)-13-(3-dimethylamino-2-hydroxy-1-propyl)-6,7,12,13-tetrahydro-3-methoxy-12-methyl-5,7-dioxo-5H-indolo[2,3-a]pyrrolo[3,4-c]carbazole]
4 | 55 nM | 0.7 | 38 nM | Cn1c2ccccc2c2c3c(c4c5ccccc5n(CCC#N)c4c21)C(=O)NC3=O [Example 1a, 12-(2-cyanoethyl)-6,7,12,13-tetrahydro-13-methyl-5,7-dioxo-5H-indolo[2,3-a]pyrrolo[3,4-c]carbazole]
5 | 49 nM | 0.7 | 35 nM | COc1ccc2c(c1)c1c3c(c4c5ccccc5n(CCC#N)c4c1n2C)C(=O)NC3=O [Example 1b, 12-(2-cyanoethyl)-6,7,12,13-tetrahydro-3-methoxy-13-methyl-5,7-dioxo-5H-indolo[2,3-a]pyrrolo[3,4-c]-carbazole]
6 | 180 nM | 0.1 | 19 nM | COc1ccc2c(c1)c1c3c(c4c5cc(OC)ccc5n(CCC#N)c4c1n2C)C(=O)NC3=O [Example 1c, 12-(2-cyanoethyl)-6,7,12,13-tetrahydro-3,9-dimethoxy-13-methyl-5,7-dioxo-5H-indolo[2,3-a]pyrrolo[3,4-c]-carbazole]
7 | 62 nM | 0.6 | 35 nM | CC(CC#N)n1c2ccccc2c2c3c(c4c5ccccc5n(C)c4c21)C(=O)NC3=O (stereo not drawn) [Example 1d, 12-(3-cyano-2-propyl)-6,7,12,13-tetrahydro-13-methyl-5,7-dioxo-5H-indolo[2,3-a]pyrrolo[3,4-c]carbazole]
8 | 17 nM | 0.8 | 14 nM | Cn1c2ccccc2c2c3c(c4c5ccccc5n(CC#N)c4c21)C(=O)NC3=O [Example 1e, 12-cyanomethyl-6,7,12,13-tetrahydro-13-methyl-5,7-dioxo-5H-indolo[2,3-a]pyrrolo[3,4-c]carbazole]
9 | 22 nM | 1.6 | 36 nM | Cn1c2ccccc2c2c3c(c4c5ccccc5n(CCCC#N)c4c21)C(=O)NC3=O [Example 1g, 12-(3-cyanopropyl)-6,7,12,13-tetrahydro-13-methyl-5,7-dioxo-5H-indolo[2,3-a]pyrrolo[3,4-c]carbazole]
10 | 24 nM | 1 | 24 nM | COc1ccc2c(c1)c1c3c(c4c5ccccc5n(CCCC#N)c4c1n2C)C(=O)NC3=O [Example 1h, 12-(3-cyanopropyl)-6,7,12,13-tetrahydro-3-methoxy-13-methyl-5,7-dioxo-5H-indolo[2,3-a]pyrrolo[3,4-c]-carbazole]
11 | 45 nM | 11.1 | 500 nM | CN(C)CCCn1c2ccccc2c2c3c(c4c5ccccc5n(C)c4c21)C(=O)NC3=O [Example 1j, 12-(3-dimethylaminopropyl)-6,7,12,13-tetrahydro-13-methyl-5,7-dioxo-5H-indolo[2,3-a]pyrrolo[3,4-c]-carbazole]
12 | 61 nM | 7.2 | 440 nM | COc1ccc2c(c1)c1c3c(c4c5ccccc5n(C)c4c1n2CCCN(C)C)C(=O)NC3=O [Example 1k, 13-(3-Dimethylaminopropyl)-6,7,12,13-tetrahydro-3-methoxy-12-methyl-5,1-dioxo-5H-indolo[2,3-a]pyrrolo-[3,4-c]carbazole]
13 | 130 nM | 0.4 | 50 nM | Cn1c2ccccc2c2c3c(c4c5ccccc5n(CCCN=[N+]=[N-])c4c21)C(=O)NC3=O [Example 1l, 12-(3-azidopropyl)-6,7,12,13-tetrahydro-13-methyl-5,7-dioxo-5H-indolo[2,3-a]pyrrolo[3,4-c]carbazole]
14 | 32 nM | 0.6 | 20 nM | COc1ccc2c(c1)c1c3c(c4c5cc(Cl)ccc5n(CCC#N)c4c1n2C)C(=O)NC3=O [Example 1n, 3-chloro-13-(2-cyanoethyl)-6,7,12,13-tetrahydro-9-methoxy-12-methyl-5,7-dioxo-5H-indolo[2,3-a]pyrrolo-[3,4-a]carbazole]
15 | 17 nM | 0.4 | 6.7 nM | COc1cc2c3c4c(c5c6ccccc6n(C)c5c3n(CCC#N)c2cc1OC)C(=O)NC4=O [Example 1o, 13-(2-cyanoethyl)-6,7,12,13-tetrahydro-2,3-dimethoxy-12-methyl-5,7-dioxo-5H-1-indolo[2,3-a]pyrrolo-[3,4-c]carbazole]
16 | 32 nM | 0.15 | 4.7 nM | COc1ccc2c(c1)c1c3c(c4c5ccccc5n(C)c4c1n2CCCC#N)C(=O)NC3=O [Example 1q, 13-(3-cyanopropyl)-6,7,12,13-tetrahydro-3-methoxy-12-methyl-5,7-dioxo-5H-indolo[2,3-a]pyrrolo[3,4-c]-carbazole]
17 | 29 nM | 0.6 | 17 nM | COc1ccc2c(c1)c1c3c(c4c5cc(OC)ccc5n(CCCC#N)c4c1n2C)C(=O)NC3=O [Example 1r, 12-(3-cyanopropyl)-6,7,12,13-tetrahydro-3,9-dimethoxy-13-methyl-5,7-dioxo-5H-indolo[2,3-a]pyrrolo-[3,4-c]carbazole]
18 | 33 nM | 0.7 | 24 nM | COc1ccc2c(c1)c1c3c(c4c5cc(OC)c(OC)cc5n(CCC#N)c4c1n2C)C(=O)NC3=O [Example 1s, 13-(2-cyanoethyl)-6,7,12,13-tetrahydro-2,3,9-trimethoxy-12-methyl-5,7-dioxo-5H-indolo[2,3-a]pyrrolo-[3,4-c]carbazole]
19 | 540 nM | 8.7 | 4700 nM | COc1ccc2c3c4c(c5c6ccccc6n(C)c5c3n(CCC#N)c2c1)C(=O)NC4=O [Example 1u, 13-(2-cyanoethyl)-6,7,12,13-tetrahydro-2-methoxy-12-methyl-5,7-dioxo-5H-indolo[2,3-a]pyrrolo[3,4-c]-carbazole]
20 | 7.2 nM | 7.2 | 52 nM | CN(C)CCn1c2ccccc2c2c3c(c4c5ccccc5n(C)c4c21)C(=O)NC3=O [Example 1x, 12-(2-dimethylaminoethyl)-6,7,12,13-tetrahydro-13-methyl-5,7-dioxo-5H-indolo[2,3-a]pyrrolo[3,4-c]carbazole]
21 | 7.6 nM | 4.1 | 31 nM | COc1ccc2c(c1)c1c3c(c4c5ccccc5n(CCCN(C)C)c4c1n2C)C(=O)NC3=O [Example 1y, 12-(3-dimethylaminopropyl)-6,7,12,13-tetrahydro-3-methoxy-13-methyl-5,7-dioxo-5H-indolo[2,3-a]pyrrolo-[3,4-c]carbazole]
22 | 20 nM | 1.3 | 26 nM | COc1cc2c3c4c(c5c6ccccc6n(C)c5c3n(CCCN(C)C)c2cc1OC)C(=O)NC4=O [Example 1z, 13-(3-dimethylaminopropyl)-6,7,12,13-tetrahydro-2,3-dimethoxy-12-methyl-5,7-dioxo-5H-indolo[2,3-a]-pyrrolo[3,4-c]carbazole]
23 | 19 nM | 1.3 | 24 nM | Cn1c2ccccc2c2c3c(c4c5cc(O)ccc5n(CCC#N)c4c21)C(=O)NC3=O [Example 2, 13-(2-Cyanoethyl)-6,7,12,13-tetrahydro-3-hydroxy-12-methyl-5,7-dioxo-5H-indolo[2,3-a]pyrrolo[3,4-c]-carbazole]
24 | 18 nM | 1.7 | 31 nM | Cn1c2ccc(O)cc2c2c3c(c4c5ccccc5n(CCC#N)c4c21)C(=O)NC3=O [Example 2a, 12-(2-cyanoethyl)-6,7,12,13-tetrahydro-3-hydroxy-13-methyl-5,7-dioxo-5H-indolo[2,3-a]pyrrolo[3,4-c]-carbazole]
25 | 32 nM | 7.2 | 230 nM | Cn1c2ccccc2c2c3c(c4c5cc(O)c(O)cc5n(CCC#N)c4c21)C(=O)NC3=O [Example 2b, 13-(2-cyanoethyl)-6,7,12,13-tetrahydro-2,3-dihydroxy-12-methyl-5,7-dioxo-5H-indolo[2,3-a]pyrrolo[3,4-c]-carbazole]

Row | Compound | IC50 [1] | ratio of IC50 C-kinase/IC50 MLC-kinase [1] | IC50 (protein kinase C)
26 | 12-(3-dimethylaminopropyl)-6,7,12,13-tetrahydro-3(9)-hydroxy-9(3)-methoxy- 5,7-dioxo-5H-indolo[2,3-a]pyrrolo[3,4-c]carbazole [Example 2d] | 16 nM | 2.4 | 38 nM
